# Laboratory results taken from publication PMC5556019, “Targeting Apolipoprotein E/Amyloid β Binding by Peptoid CPO_Aβ17-21 P Ameliorates Alzheimer’s Disease Related Pathology and Cognitive Decline” (Scientific Reports, 2017).
# Numbered stars: 1 amine (or outer) side, 2 acyl side, 3 side chain; on linkers, the order of the positions; unused ones are H or OH. Bridge positions count the residues as written; N and C are the ends. Square brackets hold non-standard residues; d marks the D form. Peptide text beside a SMILES is read from it. ξ: configuration not given here. N(CH2CH2CO)Gly = O=C(CN(CCC(=O)[*:3])[*:1])[*:2]; Nphe = O=C(O)CNCc1ccccc1; Nleu = CC(C)CNCC(=O)O; ξP = O=C(O)C1CCCN1; Sar = CNCC(=O)O
# How the values were obtained:
# [1] = test system: APP/PS1 Tg mice; assay: Total amyloid burden by 6E10/4G8 immunohistochemistry; assay type: in vivo, mouse; details: one-tailed unpaired t-test
# Protocol: The effect of CPO_Aβ17-21 P on Aβ deposition was tested in APP/PS1 Tg mice with plaque pathology. This AD mouse model develops plaque pathology from the age of 3 months. Animals were divided into two groups and received intraperitoneally (i.p.) injections of 0.2 mg of CPO_ Aβ17–21 P per mouse in sterile saline (n = 11, 5 male, 6 female) or saline alone (n = 10, 5 male, 5 female) as a control twice weekly for 4 months, beginning at age 3 months. During the treatment, veterinary staff monitored animals for any signs of toxicity, such as changes in body weight, physical appearance, and altered behavior. Animals were sacrificed a week after administration of the last treatment dose and behavioral testing. […]
# Mice were anesthetized with sodium pentobarbital (150 mg/kg, i.p.) and blood was collected via cardiac puncture and plasma was separated by centrifugation. […] To examine brain inflammation levels associated with treatment, we assessed the degree of astrocytosis with GFAP immunoreactivity and the degree of microgliosis with Iba1 and CD11b immunoreactivity as previously published, [37], [39], [40]. […]
# Amyloid burden was measured by a Bioquant stereology (BIOQUANT Image Analysis Corporation, Nashville, TN) semi-automated image analysis system using a randomized and unbiased sampling scheme according to our previous published protocol, [19], [37], [39], [40]. […]
# [2] = test system: SK-N-SH human neuroblastoma cells; assay: Toxicity rescue: apoE4-enhanced cytotoxicity of oligomeric Aβ42; assay type: cell-based; details: Aβ42 10 µM, apoE4 1 µM pre-incubated 6 hrs with inhibitor (Aβ12-28 P 4 µM; CPO_Aβ17-21 P 1 or 4 µM), three days
# Protocol: Oligomeric Aβ42 was prepared as previously published. To prepare 100 µM oligomeric Aβ42 stock solution, 0.45 mg HFIP pretreated Aβ42 peptide was dissolved into 20 µl fresh dry dimethyl sulfoxide (DMSO) to form 5 mM Aβ42 DMSO solution; then 980 µl ice cold phenol-free Ham’s F-12 cell culture medium (with 146 mg/L L-Glutamine) was added to the Aβ42 DMSO solution followed by incubation at 4 °C for 24 hrs. CPO_ Aβ17–21 P or Aβ12-28 P was pre-incubated with apoE4 in DMEM medium containing 1% N-2 supplement for 6 hrs at 37 °C then mixed with freshly prepared oligomeric Aβ42 and added to SK-N-SH cells. For comparison, cells were incubated with Aβ42 alone and Aβ42 + apoE4, apoE alone, Aβ42 + CPO_Aβ17-21 P and Aβ42 + Aβ12-28 P as additional controls. The final concentration of peptides or peptoids was as follows: Aβ42 10 µM, apoE4 1 µM, Aβ12-28 P 4 µM and CPO_Aβ17-21 P 1 µM or 4 µM. Cells were under different treatments for three days and the cell viability was assessed as described above.
# [3] = Thioflavin T aggregation assay, peptoid incubated alone; assay type: physicochemical; details: up to 100 µM, 37 °C, 10 days, 100 mM Tris buffer pH 7.4
# Protocol: Peptide Aβ42 or peptoid CPO_Aβ17-21 P were incubated alone at a concentration of 100 µM over a period of 7–10 days at 37 °C in 100 mM Tris buffer (pH 7.4). […] In aggregation inhibition experiments, apoE4 was pre-incubated with CPO_Aβ17-21 P in a molar ratio of 1:2 for 6 hrs at 37 °C followed by addition to freshly reconstituted Aβ42 on ice (molar ratio 100:1:2, Aβ42:apoE4:peptoid). As a control, Aβ42 was also incubated with CPO_Aβ17-21 P at a molar ratio of 100:2. For peptide Aβ40 all the experiments were conducted under the same conditions as Aβ42 except the peptide concentration was 400 µM. The molar ratio of Aβ40:apoE4:CPO_Aβ17-21 P was 100:1:2. (400 µM Aβ40:4 µM apoE4:8 µM CPO_Aβ17-21 P). Fibril formation by the different peptides at various time points was evaluated by a standard Thioflavin-T assay according to previously published protocols, [33].The samples were diluted in buffer containing 50 mM glycine, 2 µM Thioflavin T pH 9.2, and read on a Molecular Devices SpectraMax M2 spectrophotometer (Sunnyvale, CA) at excitation and emission wavelengths 440 and 482 nm.
structure (smiles),measurement,setting,value
CC(C)CN1CC(=O)N2CCCC2C(=O)N(Cc2ccccc2)CC(=O)N(Cc2ccccc2)CC(=O)N(C)CC(=O)N(CC(N)=O)CCC1=O (stereo not shown) [CPO_Aβ17-21 P] ([Nleu][ξP][Nphe][Nphe][Sar][N(CH2CH2CO)Gly]-NH2; lactam N-6),"total amyloid burden (6E10/4G8 immunoreactivity), cortex",[1]; p = 0.0226 versus vehicle,significant reduction
same,"total amyloid burden (6E10/4G8 immunoreactivity), hippocampus",[1]; p = 0.0361 versus vehicle,significant reduction
same,neutralization of apoE4-enhanced cytotoxicity of Aβ42,[2],neutralized
same,formation of aggregates or fibrils by the peptoid alone,[3],did not produce aggregates or fibrils
